Measurements from patent publication US7422846B2, “Natural ligand for orphan G protein coupled receptor GPR86 and methods of use” (Euroscreen S.A, priority 2001, dated 2008).

What was measured:
human P2Y13 (GPR86) = molecular target: T1, human P2Y13 (GPR86) (Homo sapiens, UniProt Q9BPV8, T179M); test: Antagonism of ADP-induced IP3 accumulation in human P2Y13-AG32 cells; assay type: cell-based; conditions: 10 min pre-incubation, then ADP 100 nM for 30 s; means±S.D. of three independent experiments
T1 construct: expressed in transfected cells; host or cells: 1321N1 astrocytoma clone AG32 (stably expressing Gα16 from pERAEQ2), G418-selected
T1 sequence (Q9BPV8 22-354 T179M): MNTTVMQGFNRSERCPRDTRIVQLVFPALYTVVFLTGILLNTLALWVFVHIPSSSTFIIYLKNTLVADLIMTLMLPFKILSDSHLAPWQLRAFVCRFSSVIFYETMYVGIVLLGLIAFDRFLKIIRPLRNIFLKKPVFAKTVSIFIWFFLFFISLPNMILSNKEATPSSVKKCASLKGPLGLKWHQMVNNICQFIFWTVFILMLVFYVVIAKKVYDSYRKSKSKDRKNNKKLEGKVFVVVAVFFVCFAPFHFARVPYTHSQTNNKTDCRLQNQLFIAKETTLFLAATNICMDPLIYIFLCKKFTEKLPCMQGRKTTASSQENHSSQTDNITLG
Description: Antagonist were tested on AG32 cells transfected with human GPR86. AG32 cells were seeded (200,000 cells per dish) on 35 mm (diameter) Petri dishes and labeled for 24 h with 5 μCi/ml [^3H]-myoinositol in inositol free DMEM containing 5% fetal calf serum, antibiotics, amphotericin, sodium pyruvate, and 400 μg/ml of G418. […] Prior to the stimulation, cells were pre-incubated for 10 min in presence of Reactive Blue 2 (RB-2), Suramine, PPADS or MRS-2179. The cells were then incubated in presence of ADP 100 nM for 30 s. The incubation was stopped by the addition of 1 ml of an ice-cold 3% perchloric acid solution. […] The data represent the mean±S.D. of triplicate experimental points obtained in one representative experiment of three.

[1] = test system: 1321N1 cells expressing GPR86 receptor alone; conditions: nucleotides 100 μM for 30 s
Description: Cells of the invention, for example, 1321N1 cells, are labelled for 24 hours with 10 μCi/ml [^3H] inositol in inositol free DMEM containing 5% FCS, antibiotics, amphotericin, sodium pyruvate and 400 μg/ml G418. Cells are incubated for 2 h in Krebs-Ringer Hepes (KRH) buffer of the following composition (124 mM NaCl, 5 mM KCl, 1.25 mM MgSO4, 1.45 mM CaCl2, 1.25 mM KH2PO4, 25 mM Hepes (pH: 7.4) and 8 mM glucose). The cells are then challenged with various nucleotides for 30 s. The incubation is stopped by the addition of an ice cold 3% perchloric acid solution. IP are extracted and separated on Dowex columns as previously described (25). 2MeSATP and ATP solutions (1 mM) are treated at room temperature with 20 units/ml CPK and 10 Mm cp for 90 min to circumvent problems arising from the contamination and degradation of triphosphate nucleotide solutions.
The pool of G418-resistant clones was tested for its functional IP3 response to several nucleotides, according to the method described above. The cells were challenged by various nucleotides at a concentration of 100 μM for 30 s: ATP, ADP, UTP, UDP, ITP, IDP, TDP.

Molecule	IC50 (human P2Y13 (GPR86))	IP3 response [1]
CNc1ncnc2c1ncn2[C@H]1C[C@H](OP(=O)(O)O)[C@@H](COP(=O)(O)O)O1 [MRS-2179]	> 100000 nM	–
Cc1nc(N=Nc2ccc(S(=O)(=O)O)cc2S(=O)(=O)O)c(COP(=O)(O)O)c(C=O)c1O [PPADS]	11700 ± 900 nM	–
Cc1ccc(C(=O)Nc2ccc(S(=O)(=O)O)c3cc(S(=O)(=O)O)cc(S(=O)(=O)O)c23)cc1NC(=O)c1cccc(NC(=O)Nc2cccc(C(=O)Nc3cc(C(=O)Nc4ccc(S(=O)(=O)O)c5cc(S(=O)(=O)O)cc(S(=O)(=O)O)c45)ccc3C)c2)c1 [Suramine]	2300 ± 400 nM	–
NCCc1c[nH]cn1 [histamine]	–	strong IP3 response
Reactive Blue 2	1900 ± 100 nM	–
